Experimental findings from patent US7368576B2, “Dipeptidyl peptidase IV inhibitors and their uses as anti-cancer agents” (Probiodrug AG, priority 2001, dated 2008) are described below.

Experiment [1] has as its target T1, porcine dipeptidyl peptidase II (DP II) (Sus scrofa, UniProt A0A5G2QK18).
T1 construct: The enzyme used was purified from porcine kidney; from tissue; host or cells: porcine kidney
As to the kind of experiment: Inhibition of DPIV-like enzymes, dipeptidyl peptidase II. It is filed as biochemical. Conditions: lysylalanylaminomethylcoumarine, 30° C.; read-out: Ki against porcine dipeptidyl peptidase II. On the procedure: DP II (3.4.14.2) releases N-terminal dipeptides from oligopeptides if the N-terminus is not protonated (McDonald, J. K., Ellis, S. & Reilly, T. J., 1966, J. Biol. Chem., 241, 1494-1501). Pro and Ala in Pi-position are preferred residues. The enzyme activity is described as DPIV-like activity, but DP II has an acidic pH-optimum. The enzyme used was purified from porcine kidney.
100 μl glutaminyl pyrrolidine or glutaminyl thiazolidine in an concentration range of 1*10^−4 M-5*10^−8 M were admixed with 100 μl μl buffer solution (40 mM HEPES, pH7.6, 0.015% Brij, 1 mM DTT), 50 μl lysylalanylaminomethylcoumarine solution (5 mM) and 20 μl porcine DP II (250fold diluted in buffer solution). Fluorescence measurement was performed at 30° C. and λexiatation=380 nm, λemission=465 nm for 25 min using a plate reader (HTS7000plus, Applied Biosystems, Weiterstadt, Germany).

The target of experiment [2] is T2, recombinant human prolyl oligopeptidase (POP) (Homo sapiens, UniProt P48147).
T2 construct: made in house; host or cells: E. coli
T2 sequence (P48147 1-710): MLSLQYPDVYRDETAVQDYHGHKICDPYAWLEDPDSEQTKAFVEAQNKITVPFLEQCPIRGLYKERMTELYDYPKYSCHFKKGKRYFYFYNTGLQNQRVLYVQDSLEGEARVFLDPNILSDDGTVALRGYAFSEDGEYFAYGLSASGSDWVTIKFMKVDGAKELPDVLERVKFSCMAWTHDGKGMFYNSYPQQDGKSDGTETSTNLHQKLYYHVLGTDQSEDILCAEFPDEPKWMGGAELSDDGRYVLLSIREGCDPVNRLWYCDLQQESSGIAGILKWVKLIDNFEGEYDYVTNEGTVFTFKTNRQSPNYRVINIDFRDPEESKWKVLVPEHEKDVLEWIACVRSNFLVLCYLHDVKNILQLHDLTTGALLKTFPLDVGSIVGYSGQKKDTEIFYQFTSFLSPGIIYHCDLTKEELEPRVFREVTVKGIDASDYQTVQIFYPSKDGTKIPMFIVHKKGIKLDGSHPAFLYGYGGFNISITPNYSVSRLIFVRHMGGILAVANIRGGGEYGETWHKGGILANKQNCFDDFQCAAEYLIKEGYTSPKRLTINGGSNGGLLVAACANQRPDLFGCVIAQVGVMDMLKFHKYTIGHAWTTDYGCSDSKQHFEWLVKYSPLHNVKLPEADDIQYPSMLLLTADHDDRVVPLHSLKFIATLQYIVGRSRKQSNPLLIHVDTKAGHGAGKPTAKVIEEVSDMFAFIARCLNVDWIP
Description: Cross reacting enzymes: prolyl oligopeptidase. Format: biochemical. Conditions: concentration range 1*10^−4 M-5*10^−8 M. On the procedure:
Substrates are peptides with a molecular weight up to 3000 Da. The enzyme used was a recombinant human prolyl oligopeptidase. Recombinant expression was performed in E. coli under standard conditions as described elsewhere in the state of the art.
100 μl glutaminyl pyrrolidine or glutaminyl thiazolidine in an concentration range of 1*10^−4 M-5*10^−8 M were admixed with 100 μl μl buffer solution (40 mM HEPES, pH7.6, 0.015% Brij, 1 mM DTT) and 20 μl POP solution. The assay mixture was pre-incubated at 30° C. for 15 min. After pre-incubation, 50 μl glycylprolylprolyl-4-nitroaniline solution (0.29 mM) was added and measurement of yellow color development due to 4-nitroaniline release was performed at 30° C. and λ=405 nm for 10 min using a plate reader (sunrise, Tecan, Crailsheim, Germany). The IC50-values were calculated using Graphit 4.0.15 (Erithacus Software, Ltd., UK).

T1 sequence (A0A5G2QK18 28-502): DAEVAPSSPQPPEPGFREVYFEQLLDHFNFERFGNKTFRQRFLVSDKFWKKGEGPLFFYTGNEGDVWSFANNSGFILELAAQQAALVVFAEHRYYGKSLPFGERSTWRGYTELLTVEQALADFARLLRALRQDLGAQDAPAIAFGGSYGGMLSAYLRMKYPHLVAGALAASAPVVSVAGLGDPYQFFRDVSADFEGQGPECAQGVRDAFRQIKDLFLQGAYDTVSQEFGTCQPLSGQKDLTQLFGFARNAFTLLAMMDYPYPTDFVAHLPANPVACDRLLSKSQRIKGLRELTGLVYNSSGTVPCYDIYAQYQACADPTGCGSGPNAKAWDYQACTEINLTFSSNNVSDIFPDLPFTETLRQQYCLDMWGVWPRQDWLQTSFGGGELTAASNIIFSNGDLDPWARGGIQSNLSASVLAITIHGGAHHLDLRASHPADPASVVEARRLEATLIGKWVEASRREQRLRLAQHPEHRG

In the case of `NC(=O)CCC(N)C(=O)N1CCCC1` (centres unmarked) [Gln-Pyrr, glutaminyl pyrrolidine], in experiment [1], the Ki was found to be 85.2 µM. Moreover, in experiment [2], the “inhibition of POP activity” value is listed as “No inhibition”.
